Results on two molecules are retold here after patent publication US20040132696A1, “Therapeutic agents for pigmentation and melanocyte growth inhibitory agents” (priority 1999, published 2004).

Each structure is given as a SMILES string. Where two headings read alike, the source gives them in different places.

Common to all, as to format: cell-based
In test [1] the test system is normal human epidermal keratinocytes (HEKn). Kind of test: Growth inhibition of cultured human keratinocytes (cell count by Coulter Counter). Conditions: Keratinocyte, 144 h, read-out: inhibition against keratinocytes. The protocol:
Keratinocytes: normal human epidermal keratinocytes (HEKn:C-001-5C, Kurabo Industries).
(§1) Melanocytes were cultured at 2×10^5 cells/well in MGM3 (Melanocyte Growth Medium 3, Takara Shuzo) used as a culture medium. Keratinocytes were cultured at 1×10^5 cells/well in KGM2 (Keratinocyte Growth Medium 2, Takara Shuzo) used as a culture medium. To each well was added 22-oxacalcitriol or calcitriol at a final concentration of 10^−7 M and cultivation was continued. On days 3 and 6 after the addition, the number of cells was determined by a Coulter Counter.

Test [2] relates to normal human epidermal melanocytes (NHEM). The test can be described thus: Growth inhibition of cultured human melanocytes (cell count by Coulter Counter). Conditions: Melanocyte, 144 h, read-out: inhibitory effect against the proliferation of melanocytes. The protocol: (§2) Melanocytes: normal human epidermal melanocytes (NHEM:KM-4009, Kurabo Industries).
as §1

The subject of a further test is Human melanocytes. Kind of test: Tritiated thymidine (3[H]-TdR) uptake by cultured human melanocytes. Conditions: 10^-7 M, day 1. The protocol: as §2
Human melanocytes were cultured at 5×10^5 cells/well in MGM3 used as a culture medium, and 22-oxacalcitriol or calcitriol was added to each well at a final concentration of 10^−7 M to determine tritiated thymidine (^3[H]-TdR) uptake by cells in a liquid scintillation counter on days 1, 3 and 5 after the addition.

[3] abbreviates: 10^-7 M, day 6, average of 5 experiments.

For `C=C1/C(=C\C=C2/CCC[C@]3(C)[C@@H]([C@H](C)OCCC(C)(C)O)CC[C@@H]23)C[C@@H](O)C[C@@H]1O` [22-oxacalcitriol], the figures for the inhibition at 0.1 µM in test [1] (setting [3]) and in test [2] (setting [3]) were 25% and at least 30%, respectively.
As to `C=C1/C(=C\C=C2/CCC[C@]3(C)[C@@H]([C@H](C)CCCC(C)(C)O)CC[C@@H]23)C[C@@H](O)C[C@@H]1O` [calcitriol, 1α,25-dihydroxyvitamin D3], the “decrease in tritiated thymidine uptake” value with Human melanocytes was determined as 50%. In addition, the inhibition at 0.1 µM was 40% in test [1] and at least 30% in test [2].
